Measured values from patent publication US20240238278A1, “Pharmaceutical Composition for Preventing or Treating Fibrosis” (Daewoong Pharmaceutical Co., Ltd., priority 2021, published 2024).

Columns and labels:
[1] = test system: animal model of pulmonary fibrosis; test: Measurement of total collagen content in lung (INSOLUBLE Collagen Assay); assay type: in vivo, mouse; conditions: BLM mice, PO, day 21, n 9; first component 10 mg/kg, NIN 60 mg/kg, PID 200 mg/kg
Procedure: (§1) 70-100 uL of BLM solution (bleomycin 1-3 mg/kg) was administered to a lung of the acclimatized experimental animals using a catheter for 5 days or more. In accordance with the purpose of the test, the test drug was administered 7 days after BLM administration, and the drug was orally administered for 2 weeks until the 21st day of BLM administration.
In this experimental example, analysis was performed using INSOLUBLE Collagen Assay (Biocolor, S2000). After sacrifice on the 21st day, the cryopreserved lung tissue was pulverized by adding 100 uL of Fragmentation Reagent, and then, 100 uL of 37% HCl was added and incubated at 65° C. for 3 hours. The contents of the tube were shaken at 30 minute intervals to aid tissue disintegration. After centrifugation, the concentration was adjusted to 100 μL and collagen staining was proceeded to prepare a sample. Absorbance was measured at 560 nm.

[2] = Drug interaction clinical trial, combined administration; assay type: in vivo, human; conditions: Part 2, healthy adults; first component 150 mg enteric tablet
Procedure: To evaluate the drug interaction during the combined administration of the first component and the second component, a clinical trial was conducted on a total of 48 healthy adults, divided into two groups of 24 each for Part 1 and Part 2. The clinical trial was designed by a fixed sequence, three-phase, and one 150 mg enteric tablet of the first component was orally administered.
Subjects enrolled in Part 1 were sequentially given a single dose of 600 mg of the second component (PID) in the phase 1, a single dose of 150 mg of the first component in the phase 2. After that, washout progressed on the 3rd day, and 150 mg of the first component was administered multiple times for 3 days, and in the final phase 3, a single dose of the first component and the second components (NIN) was administered in combination.

[3] = test system: animal model of pulmonary fibrosis; test: Inflammation cell count analysis in BALF; assay type: in vivo; conditions: BLM mice, PO, day 21; first component 10 mg/kg, NIN 60 mg/kg, PID 200 mg/kg
Procedure: as §1
At the sacrifice on the 21st day of administration, BALF (Bronchoalveolar lavage fluid) cells obtained through airway washing of mice were diluted with 1.05×PBS and attached to a slide, and then the slide was immersed and removed for 30 seconds in the order of 1, 2, 3 diff quick stain solution, and stained. It was counted based on 500 cells. Macrophages are the largest in size, mononuclear, and stained blue. Neutrophils and eosinophils form polynuclear cells, but eosinophils are stained red with eosin and distinguished from neutrophils. Lymphocytes have very less cytoplasm and are small in size as monocytes.

[4] = Measurement of change in body weight in BLM animal model; assay type: in vivo, mouse; design: unit not given here; conditions: BLM mice, first component 10 mg/kg, NIN 60 mg/kg, PID 200 mg/kg
Procedure: as §1
The body weight was measured once every 0, 7, 14, 17, and 21 days for 3 weeks, and from the 14th day when the drug effect began to be noticeable after the administration, it was measured every 3 days.

DHLF cell line = test: Non-clinical anti-fibrotic efficacy: Western blotting of TGF-β treated DHLF cell line; assay type: cell-based; conditions: TGF-β 10 ng/ml, 72 hours
Procedure: 10 mM of the first component was diluted with DMSO so as to be to 100 uM. It was diluted with DMSO so as to be 10, 3, 1 uM, and 10 mM of the second component (NIN) was diluted with DMSO to be 50 nM.
A DHLF cell line (FGM™-2 Bullet Kit™, 10% FBS), which is a lung fibrosis cell line, was prepared, and cultured in a T75 Easy Flask Filter at 37° C. and 5% CO2 using FBM medium. The cultured DHLF cell line was treated with 10 ng/mL of TGF-β and the test drug alone or in combination, cultured for 72 hours, then the media was removed, the protein was extracted, and the extracted protein was quantified using the BCA Protein Assay Kit. Based on the quantitative value of each extracted protein, 10 to 20 ug of protein was subjected to Western blotting. The protein after running was transferred to the PVDF membrane. After TBS-T washing 3 times, each PVDF membrane was treated with 1 mL of ECL solution, and then the protein expression level was measured using an AI680 imager. Each band value was calculated as a numerical value normalized compared to β-actin through ImageJ, and is shown in Tables 2 and 3 and FIGS. 1 and 2 below.

[5] = test system: animal model of pulmonary fibrosis; test: Lung function evaluation (SpO2) in BLM animal model; assay type: in vivo, mouse; conditions: BLM mice, PO, day 21, first component 10 mg/kg, NIN 60 mg/kg, PID 200 mg/kg
Procedure: as §1
This lung function evaluation is the most direct and important evaluation index that has the greatest influence on the symptoms and quality of life of patients with pulmonary fibrosis, and is an experiment that can most directly show the effect of improving lung function in an animal model of pulmonary fibrosis by measuring the oxygen concentration in the body.
On the 21st day, it was measured with a SpO2 measuring device (Berry, Veterinary Pulse Oximeter) via the abdominal side of the mouse, and the results are shown in Table 5 and FIG. 3.

[6] = Pharmacokinetic model prediction of exposure in humans at various oral doses; design: species or system human; conditions: model-predicted
Description: Therefore, the optimal pharmacokinetic model parameters that can explain the changes in concentrations at all doses observed using Excel® and WinNonlin8.1 software were estimated for the blood drug concentration obtained in the human multidose clinical trial.

[7] = Human pharmacokinetics, single administration; assay type: in vivo; conditions: for CL/F / Cmax / MRT / T1/2 / tmax (median) / AUC(0-inf) / AUC(0-t) / Tmax: healthy adults, empty stomach; for Tmax: read-out: tmax (median)
Procedure: (§2) The formulation used in the clinical trial was prepared in the same manner as in Preparation Examples 1 and 2.

[8] = Human pharmacokinetics, multiple administration (Day 14); assay type: in vivo; conditions: for Accumulation ratio based on AUCτ / CL/Fss / Cmax, ss / MRT / T1/2 / Vz/Fss / tmax, ss (median) / AUCτ / AUC(0-inf): healthy adults; for Accumulation ratio based on AUCτ / CL/Fss / Cmax, ss / MRT / T1/2 / Vz/Fss / tmax, ss (median) / AUC(0-inf): Day 14; for AUCτ: Day 14, 12 hour dosing interval
Procedure: as §2

[9] = Safety/tolerance in healthy adults clinical trial; assay type: in vivo, human; conditions: 72 healthy adults, single (100-600 mg) and multiple (25-200 mg twice a day, 14 days) administration
Procedure: as §2

[10] = Table 2, second component (NIN) 50 ng/ml alone
[11] = Table 3, second component (NIN) 100 ng/ml alone
[12] = single oral 100 mg, enteric coated capsules
[13] = single oral 300 mg, enteric coated capsules
[14] = single oral 500 mg, enteric coated tablet
[15] = single oral 600 mg, enteric coated capsules
[16] = human, plasma, single oral 100 mg, enteric coated capsules
[17] = human, plasma, single oral 300 mg, enteric coated capsules
[18] = human, plasma, single oral 500 mg, enteric coated tablet
[19] = human, plasma, single oral 600 mg, enteric coated capsules

Compound: COC(=O)c1ccc2c(c1)NC(=O)/C2=C(\Nc1ccc(N(C)C(=O)CN2CCN(C)CC2)cc1)c1ccccc1 [Second component (NIN), Nintedanib]
- total collagen content in lung (hydroxyproline value, ratio compared with normal group) [1]: 192
- drug interaction when administered in combination with the first component vs alone [2]: no clinically significant drug interaction
- Eosinophil count in BALF [3]: 0
- Lymphocyte count in BALF [3]: 5
- Macrophage count in BALF [3]: 53
- Neutrophil count in BALF [3]: 10
- total cell in BALF [3]: 69 10^4
- change in body weight ([4]; Day 0): 0.0
- change in body weight ([4]; Day 7): −10.1
- change in body weight ([4]; Day 14): −22.6
- change in body weight ([4]; Day 17): −20.0
- change in body weight ([4]; Day 21): −18.2
- COL1A1 Relative value (based on control) (DHLF cell line; [10]): 4.60
- SMA-α Relative value (based on control) (DHLF cell line; [10]): 2.63
- COL1A1 Relative value (based on control) (DHLF cell line; [11]): 2.81
- SMA-α Relative value (based on control) (DHLF cell line; [11]): 2.99
- SpO2 Average value [5]: 79.8
- SpO2 Differance ([5]; vs vehicle): 3.8
- SpO2 Rate of increase ([5]; vs vehicle): 5%

Compound: O[C@H]1CCCN[C@@H]1CCCn1cnc2c(Cl)c(Cl)ccc21 [Active component]
- AUCtau ([6]; oral Dose 50 mg): 231.6352 ng·h/mL
- AUCtau—24 hr ([6]; oral Dose 50 mg): 463.2704 ng·h/mL
- CL/F ([6]; oral Dose 50 mg): 215856.7 mL/h
- Cmax ([6]; oral Dose 50 mg): 38.271 ng/mL
- T1/2 ([6]; oral Dose 50 mg): 9.753 h
- Tmax ([6]; oral Dose 50 mg): 2.803 h
- AUCtau ([6]; oral Dose 100 mg): 463.2704 ng·h/mL
- AUCtau—24 hr ([6]; oral Dose 100 mg): 926.5407 ng·h/mL
- CL/F ([6]; oral Dose 100 mg): 215856.7 mL/h
- Cmax ([6]; oral Dose 100 mg): 76.5419 ng/mL
- T1/2 ([6]; oral Dose 100 mg): 9.753 h
- Tmax ([6]; oral Dose 100 mg): 2.803 h
- AUCtau ([6]; oral Dose 150 mg): 694.9055 ng·h/mL
- AUCtau—24 hr ([6]; oral Dose 150 mg): 1389.811 ng·h/mL
- CL/F ([6]; oral Dose 150 mg): 215856.7 mL/h
- Cmax ([6]; oral Dose 150 mg): 114.813 ng/mL
- T1/2 ([6]; oral Dose 150 mg): 9.753 h
- Tmax ([6]; oral Dose 150 mg): 2.803 h
- AUCtau ([6]; oral Dose 200 mg): 926.5413 ng·h/mL
- AUCtau—24 hr ([6]; oral Dose 200 mg): 1853 ng·h/mL
- CL/F ([6]; oral Dose 200 mg): 215856.5 mL/h
- Cmax ([6]; oral Dose 200 mg): 153.084 ng/mL
- T1/2 ([6]; oral Dose 200 mg): 9.753 h
- Tmax ([6]; oral Dose 200 mg): 2.803 h
- CL/F [7, 12]: 156.48 L/h
- Cmax [7, 12]: 123.96 ng/mL
- MRT [7, 12]: 9.26 h
- T1/2 [7, 12]: 6.91 h
- CL/F [7, 13]: 196.59 L/h
- Cmax [7, 13]: 276.80 ng/mL
- MRT [7, 13]: 9.75 h
- T1/2 [7, 13]: 8.33 h
- tmax (median) [7, 13]: 2.50 h
- CL/F [7, 14]: 213.75 L/h
- Cmax [7, 14]: 513.56 ng/mL
- MRT [7, 14]: 9.57 h
- T1/2 [7, 14]: 7.80 h
- tmax (median) [7, 14]: 3.01 h
- CL/F [7, 15]: 312.07 L/h
- Cmax [7, 15]: 213.43 ng/mL
- MRT [7, 15]: 9.79 h
- T1/2 [7, 15]: 9.90 h
- half-life ([7]; human, plasma, oral, single administration, across 100-600 mg doses, read-out: geometric mean half-life): 6.91 to 9.9 h
- AUC(0-inf) [7, 16]: 639 ng·h/mL
- AUC(0-t) [7, 16]: 594 ng·h/mL
- Tmax [7, 16]: 3 h
- AUC(0-inf) [7, 17]: 1530 ng·h/mL
- AUC(0-t) [7, 17]: 1480 ng·h/mL
- AUC(0-inf) [7, 18]: 2340 ng·h/mL
- AUC(0-t) [7, 18]: 2280 ng·h/mL
- AUC(0-inf) [7, 19]: 1920 ng·h/mL
- AUC(0-t) [7, 19]: 1010 ng·h/mL
- Tmax [7, 19]: 2 h
- relationship of plasma concentrations to dose ([7]; single administration): dose proportional relationship
- Accumulation ratio based on AUCτ ([8]; 25 mg tablet twice a day): 1.94
- CL/Fss ([8]; 25 mg tablet twice a day): 122.65 L/h
- Cmax, ss ([8]; 25 mg tablet twice a day): 36.50 ng/mL
- MRT ([8]; 25 mg tablet twice a day): 10.53 h
- T1/2 ([8]; 25 mg tablet twice a day): 7.63 h
- Vz/Fss ([8]; 25 mg tablet twice a day): 1433.79 L
- tmax, ss (median) ([8]; 25 mg tablet twice a day): 2.00 h
- AUCτ ([8]; 25 mg tablet twice a day): 183.32 ng·h/mL
- Accumulation ratio based on AUCτ ([8]; 50 mg tablet twice a day): 2.33
- CL/Fss ([8]; 50 mg tablet twice a day): 116.53 L/h
- Cmax, ss ([8]; 50 mg tablet twice a day): 102.61 ng/mL
- MRT ([8]; 50 mg tablet twice a day): 8.44 h
- T1/2 ([8]; 50 mg tablet twice a day): 4.40 h
- Vz/Fss ([8]; 50 mg tablet twice a day): 738.97 L
- AUCτ ([8]; 50 mg tablet twice a day): 429.09 ng·h/mL
- Accumulation ratio based on AUCτ ([8]; 100 mg tablet twice a day): 1.88
- CL/Fss ([8]; 100 mg tablet twice a day): 161.97 L/h
- Cmax, ss ([8]; 100 mg tablet twice a day): 151.27 ng/mL
- MRT ([8]; 100 mg tablet twice a day): 10.17 h
- T1/2 ([8]; 100 mg tablet twice a day): 9.26 h
- Vz/Fss ([8]; 100 mg tablet twice a day): 2163.04 L
- tmax, ss (median) ([8]; 100 mg tablet twice a day): 3.00 h
- AUCτ ([8]; 100 mg tablet twice a day): 617.40 ng·h/mL
- Accumulation ratio based on AUCτ ([8]; 200 mg tablet twice a day): 3.75
- CL/Fss ([8]; 200 mg tablet twice a day): 66.39 L/h
- Cmax, ss ([8]; 200 mg tablet twice a day): 595.35 ng/mL
- MRT ([8]; 200 mg tablet twice a day): 12.07 h
- T1/2 ([8]; 200 mg tablet twice a day): 12.35 h
- Vz/Fss ([8]; 200 mg tablet twice a day): 1182.53 L
- AUCτ ([8]; 200 mg tablet twice a day): 3012.35 ng·h/mL
- AUC(0-inf) ([8]; human, plasma, oral, 25 mg tablet twice a day): 301 ng·h/mL
- AUC(0-inf) ([8]; human, plasma, oral, 50 mg tablet twice a day): 565 ng·h/mL
- AUC(0-inf) ([8]; human, plasma, oral, 100 mg tablet twice a day): 888 ng·h/mL
- AUC(0-inf) ([8]; human, plasma, oral, 200 mg tablet twice a day): 4750 ng·h/mL
- AUC ([8]; human, plasma, oral, multiple administration, 14th day, across 25-200 mg, read-out: geometric mean dose interval in vivo exposure (AUCτ)): 183 to 3010 ng·h/mL
- half-life ([8]; human, plasma, oral, multiple administration, 14th day, across 25-200 mg, read-out: geometric mean half-life): 4.4 to 12.3 h
- relationship of plasma concentrations to dose ([8]; multiple administration, dose range of 25 mg to 200 mg): dose linear relationship
- serious abnormal signs or side effects [9]: no serious abnormal signs or side effects
